Source: US20260306640A1, “TECHNOLOGIES TARGETING CELL STATES” (Auron Therapeutics, Inc., priority 2023, published 2026)

Tests used:
KAT2A [1] = target: T1, KAT2A (Homo sapiens, UniProt Q92830); assay: KAT2A degradation, Western Blot (Jess), NCI-H1048 cells; assay type: cell-based; design: degrader, Western blot (Jess); conditions: NCI-H1048, KAT2A
Method in brief: (§1)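 DC50 came from protein loss relative to DMSO, measured by Jess capillary immunoblot of RIPA lysates with chemiluminescence read-out. Before lysis, NCI-H1048 cells in 5% FBS HITES medium were exposed to compound for 24 h at 37° C.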

MOLM-13 cells = assay: Cell growth inhibition, AML cell line MOLM-13 (CyQuant, day 7); assay type: cell-based; conditions: Homo sapiens; MOLM-13, comparison table with Ref-1; read-out: Growth GI50
Excerpt: (§2) Among other things, provided technologies are useful for treating various diseases, disorders, or conditions. For example, in some embodiments, provided technologies are useful for treating cancer as confirmed in the present Example. […] In some embodiments, provided technologies can inhibit cell proliferation. In some embodiments, the present disclosure provides technologies for assessing various technologies, e.g., compounds, compositions, or methods. Among other things, the present Example provides technologies, e.g., cell growth inhibition assay, for assessing various technologies. […] In some embodiments, the following cell growth inhibition methods are utilized to assess provided technologies.
AML: AML cell line MOLM-13 cells were cultured in RPMI+15% FBS and were plated at 500 cells/well in 100 uL media in a U-bottom 96-well plate. Compounds were dilute to 3×final in full media and 50 uL were added to corresponding wells. Compound and media were replenished on days 2 and 5. On day 7, cells were transferred to a 96-well black bottom plate and CyQuant was performed per manufacturer's instructions.
(§3) In some assessments, for cell growth inhibition, cells, e.g., MOLM13, NCI-H1048, and LASCPC-01 cells, were counted using a hemocytometer or automated cell counting in triplicates. In some assessments, proliferation in NEPC organoids as measured with Cell Titer Glo reagent (Promega). Growth inhibition was determined relative to vehicle control.

KAT2B [2] = target: T2, KAT2B (Homo sapiens, UniProt Q92831); assay: KAT2B degradation, Western Blot (Jess), NCI-H1048 cells; assay type: cell-based; design: degrader, Western blot (Jess); conditions: NCI-H1048, KAT2B
T2 sequence (Q92831 whole entry): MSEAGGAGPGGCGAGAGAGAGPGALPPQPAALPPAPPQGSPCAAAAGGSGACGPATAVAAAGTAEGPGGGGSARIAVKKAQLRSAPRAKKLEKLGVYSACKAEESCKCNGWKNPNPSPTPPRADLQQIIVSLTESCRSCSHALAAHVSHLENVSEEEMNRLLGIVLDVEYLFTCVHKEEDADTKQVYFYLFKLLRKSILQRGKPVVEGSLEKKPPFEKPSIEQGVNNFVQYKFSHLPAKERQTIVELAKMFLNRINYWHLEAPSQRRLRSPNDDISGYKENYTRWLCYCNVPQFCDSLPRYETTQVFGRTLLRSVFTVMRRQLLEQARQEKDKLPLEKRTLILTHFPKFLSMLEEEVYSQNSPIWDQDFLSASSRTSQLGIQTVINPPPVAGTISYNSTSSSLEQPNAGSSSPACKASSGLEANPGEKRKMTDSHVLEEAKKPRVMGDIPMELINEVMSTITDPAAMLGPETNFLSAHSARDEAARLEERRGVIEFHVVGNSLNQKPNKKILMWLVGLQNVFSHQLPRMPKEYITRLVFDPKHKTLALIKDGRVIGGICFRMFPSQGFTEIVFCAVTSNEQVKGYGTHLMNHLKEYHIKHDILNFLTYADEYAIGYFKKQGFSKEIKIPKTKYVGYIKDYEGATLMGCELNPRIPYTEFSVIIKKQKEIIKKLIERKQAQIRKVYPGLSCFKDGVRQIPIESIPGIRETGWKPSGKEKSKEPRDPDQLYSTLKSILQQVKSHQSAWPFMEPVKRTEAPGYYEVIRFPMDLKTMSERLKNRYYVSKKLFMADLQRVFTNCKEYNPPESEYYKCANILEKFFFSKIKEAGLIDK
Method in brief: as §1

KAT2A [3] = target: T1, KAT2A; assay: KAT2A degradation, Western Blot (Jess), MOLM-13 cells; assay type: cell-based; design: degrader, Western blot; conditions: MOLM-13, KAT2A
Method in brief: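 MOLM-13 cells in RPMI 1640/20% FBS were treated with compound for 24 h at 37 °C. RIPA lysates (4 μg) were run on a capillary Western (Jess) with anti-KAT2A antibody and chemiluminescent detection. DC50 comes from percent protein reduction versus DMSO control.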

KAT2B [4] = target: T2, KAT2B; assay: KAT2B degradation, Western Blot, MOLM-13 cells; assay type: cell-based; design: degrader, Western blot; conditions: MOLM-13, KAT2B
Protocol: MOLM-13 cells were maintained at 37° C. in 5% CO2 and 90% humidity in RPMI 1640 supplemented with 20% fetal bovine serum (FBS) and 1× penicillin/streptomycin. Cells were plated in full media at 1-2 million cells/2 mL in a 6-well tissue culture treated plate with or without compounds for 24 h at 37° C. in 5% CO2.
MOLM-13 cells or NCI-H1048 cells were washed with PBS, then lysed with RIPA buffer containing 1×protease and phosphatase inhibitors (SantaCruz Biotechnologies Cat #sc-24948A). Protein was isolated by centrifugation at 12,000×g for 10 minutes at 4° C. and supernatant was collected. Protein was quantified via Bradford assay. Samples were diluted to 4 μg lysate in 16 μL RIPA buffer and then 4 μL of Jess Sample Buffer. Samples were heated at 95° C. for 5 minutes. Samples were loaded onto 12-230 kDa Jess™ Separation Module, 8×25 capillary cartridges (SM-W004, Biotechne). Antibodies loaded were: Primary antibody for KAT2A (GCN5L2 (C26A10) Rabbit mAb (3305, CST)) and for KAT2B (PCAF (C14G9)) Rabbit mAb (3378, CST) at 1:1000 and Anti-Rabbit Detection Module for Jess™ (Cat No #DM-001, Biotechne). Signal was detected by chemiluminescence.
DC50 values were determined from percent reduction of protein as compared to the DMSO control.

NCI-H1048 cells = assay: Cell growth inhibition, SCLC cell line NCI-H1048 (cell count, day 11); assay type: cell-based, human; conditions: Homo sapiens; NCI-H1048, comparison table with Ref-1; read-out: Growth GI50
Excerpt: as §2
SCLC: SCLC cell lines NCI-H1048 and NCI-H1876 were cultured in DMEM F12 media with 5% FBS, 1% Penicillin/Streptomycin and HITES supplement (Hydrocortisone, Insulin, Transferrin, Estradiol and Sodium Selenite). NCI-H1048 cells were plated at 10,000 cells/well of a 24-well plate and NCI-H1876 cells were plated at 20,000 cells/well of a 96-well plate. Compound and media were replenished every two days out to day 11 and 10 respectively. Cells were then trypsinized and counted using either hemocytometer or an automated Countess cell counter.
as §3

[5] = 24 h, read-out: DC90 (the source's name)

T1 sequence (Q92830 whole entry): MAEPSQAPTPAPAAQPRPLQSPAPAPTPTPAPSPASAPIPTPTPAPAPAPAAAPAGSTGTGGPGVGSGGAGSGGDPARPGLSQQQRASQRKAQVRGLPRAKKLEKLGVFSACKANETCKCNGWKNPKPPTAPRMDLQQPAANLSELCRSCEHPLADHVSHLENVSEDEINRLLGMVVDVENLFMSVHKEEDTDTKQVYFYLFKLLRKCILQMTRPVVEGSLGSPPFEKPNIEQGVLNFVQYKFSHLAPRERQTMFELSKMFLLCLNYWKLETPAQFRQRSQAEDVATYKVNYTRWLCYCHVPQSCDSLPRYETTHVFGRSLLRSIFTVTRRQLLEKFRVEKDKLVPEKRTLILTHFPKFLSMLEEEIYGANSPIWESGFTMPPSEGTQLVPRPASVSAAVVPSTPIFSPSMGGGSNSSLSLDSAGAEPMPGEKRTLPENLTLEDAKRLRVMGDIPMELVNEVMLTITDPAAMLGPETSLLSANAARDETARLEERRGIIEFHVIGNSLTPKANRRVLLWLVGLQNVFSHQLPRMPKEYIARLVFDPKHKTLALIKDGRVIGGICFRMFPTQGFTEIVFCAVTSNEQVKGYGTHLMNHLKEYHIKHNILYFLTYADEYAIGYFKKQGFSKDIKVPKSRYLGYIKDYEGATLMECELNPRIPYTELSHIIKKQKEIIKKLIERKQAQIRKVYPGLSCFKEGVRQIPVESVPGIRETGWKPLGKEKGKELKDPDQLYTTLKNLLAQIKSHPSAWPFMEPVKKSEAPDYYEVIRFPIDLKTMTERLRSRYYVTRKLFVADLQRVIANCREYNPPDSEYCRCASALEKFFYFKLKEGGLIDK

Work on `CN1C[C@H](Nc2cnn(C)c(=O)c2Br)C[C@H](c2ccc(C(=O)N(C)CCCN(C)c3ccc(CCCOc4cccc5c4C(=O)N(C4CCC(=O)NC4=O)C5=O)cc3)cc2)C1` (stereo partly shown) [Compound Ref-1, reference compound] yielded an EC90 (KAT2A [1]; [5]) of 16 nM, a DC50 (KAT2A [1]; read-out: DC50) of 1.5 nM and a GI50 (MOLM-13 cells) of 60 nM. For the same compound, the EC90 (KAT2B [2]; [5]) was 1 nM, the DC50 (KAT2B [2]; read-out: DC50) was 0.1 nM and the EC90 (KAT2A [3]; [5]) was 51 nM. The DC50 (KAT2A [3]; read-out: DC50) was 2.2 nM, the EC90 (KAT2B [4]; [5]) was 1.8 nM and the DC50 (KAT2B [4]) was 0.075 nM. It also gave a GI50 (NCI-H1048 cells) of 32 nM.
